Source: patent US8653091B2, “Pyrid-2yl fused heterocyclic compounds, and compositions and uses thereof” (Evotec AG, priority 2007, dated 2014)

Columns and labels:
P2X3 = P2X3 (Homo sapiens (Human), UniProt P56373); assay: Calcium uptake assay (P2X antagonist assay), P2X3; type: cell-based; conditions: inhibition of agonist-induced calcium influx
Text: (§1) Human P2X3 (Accession no. NM_002559), P2X2 (Accession no. NM_170682) and Rat P2X3 (Accession no. NM_031075) and P2X2 (Accession no. NM_053656) are cloned into a mammalian expression vector (e.g., pcDNA5/TO or pcDNA3 Invitrogen). The human P2X2/3 chimera clone is created as described by Neelands et al, and then cloned into an expression vector as above. Receptors are expressed in cells (e.g., HEK293 or 1321N1 (obtained from the ECACC)) via transient transfection using standard lipid mediated transfection, or by creation of stable transfectants for each receptor. For expression of the P2X2/3 heteromeric receptor, the P2X3 expression vector is stably transfected into a cell line already stably expressing P2X2. P2X2/3 heteromer function is isolated using pharmacological methods. Cell lines are maintained in DMEM+5% Glutamax, the appropriate level of selective antibiotic, and 10% heat inactivated FBS.
(§2) Functional activity of compounds at the P2X receptor is determined by measuring their ability to inhibit agonist-induced calcium influx. Compounds are tested for antagonist activity against the P2X2/3 chimera, the P2X3 homomer, or the P2X2/3 heteromer. At the start of each screening day, the agonist EC50 is determined. Compound % inhibition or IC50s are subsequently determined using a pre-determined agonist concentration (EC50-90 depending on cell line) as a stimulus. The agonists used are αβMeATP, ATP, or other ATP analogs. Compounds may be tested at concentrations ranging from 1 μM to 10 μM.
(§3) To test for antagonist activity, cells expressing the appropriate receptor are seeded onto 96 or 384 well plates 18-24 hours prior to assay. On the day of the assay, cells are loaded with calcium-sensitive fluorescent dye (e.g., Fluo-4 no wash reagent-Invitrogen cat#F36206, or the BD™ PBX Calcium Assay Kit—BD cat#640175) in Hank's Buffered Salt Solution (HESS) with up to 10 mM supplemental CaCl2. Plates are incubated at 37° C. and then equilibrated at room temperature. Antagonism of agonist-induced calcium influx is measured using a fluorescent imaging plate reader (e.g. FLIPR^TETRA, Molecular Devices, Sunnyvale, Calif.). The assay comprises two stages: a pre-treatment phase followed by a treatment phase. Compounds may be tested as follows: For the pre-treatment phase, 50 μL of 3× concentration of test compound in HBSS is added to cells containing 100 μL of dye loading media to achieve a final concentration of 1× test compound. For the treatment phase, at a set interval after pre-treatment (1-30 minutes), 50 μL of 1× test compound plus […] solution is added, resulting in a final concentration of 1× compound and 1× agonist. Fluorescence is measured at 0.1-3 second intervals—with an excitation wavelength of 494 nm and an emission wavelength of 515 nm. Responses are measured as (peak fluorescence after agonist addition) minus (baseline fluorescence prior to treatment). Percent inhibition is calculated as follows: […]
(§4) IC50 values are determined by analyzing dose response data in a 4 parameter logistic fit using GraphPad Prizm.

P2X2/3 = P2X2/3 (Homo sapiens (Human), UniProt P56373+Q9UBL9); assay: Calcium uptake assay (P2X antagonist assay), P2X2/3; type: cell-based; conditions: inhibition of agonist-induced calcium influx
Chain of P2X2/3 (Q9UBL9 whole entry): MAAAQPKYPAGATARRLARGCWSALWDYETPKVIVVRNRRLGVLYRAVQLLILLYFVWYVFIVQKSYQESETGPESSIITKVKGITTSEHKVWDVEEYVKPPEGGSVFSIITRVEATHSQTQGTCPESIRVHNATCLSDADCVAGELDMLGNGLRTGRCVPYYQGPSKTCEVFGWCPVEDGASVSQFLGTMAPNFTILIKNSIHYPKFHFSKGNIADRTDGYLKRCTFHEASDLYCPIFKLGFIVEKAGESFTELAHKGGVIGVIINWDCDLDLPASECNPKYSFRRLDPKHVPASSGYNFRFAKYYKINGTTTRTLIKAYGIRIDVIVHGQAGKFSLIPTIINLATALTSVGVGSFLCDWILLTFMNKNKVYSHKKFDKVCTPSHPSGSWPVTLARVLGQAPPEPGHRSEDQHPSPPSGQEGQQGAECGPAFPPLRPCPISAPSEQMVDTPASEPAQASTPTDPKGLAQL
Chain of P2X2/3 (P56373 whole entry): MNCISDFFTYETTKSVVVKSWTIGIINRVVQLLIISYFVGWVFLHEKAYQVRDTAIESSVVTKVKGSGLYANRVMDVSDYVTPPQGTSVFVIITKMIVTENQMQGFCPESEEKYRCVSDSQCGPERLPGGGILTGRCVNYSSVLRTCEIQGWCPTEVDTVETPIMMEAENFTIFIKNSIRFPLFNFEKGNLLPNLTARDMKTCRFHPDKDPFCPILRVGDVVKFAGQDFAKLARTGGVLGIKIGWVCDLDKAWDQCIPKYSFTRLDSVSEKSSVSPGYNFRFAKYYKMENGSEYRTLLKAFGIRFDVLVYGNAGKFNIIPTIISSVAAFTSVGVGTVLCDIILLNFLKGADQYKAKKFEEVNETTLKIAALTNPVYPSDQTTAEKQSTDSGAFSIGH
Text: as §1, §2, §3, §4

Chain of P2X3 (P56373 whole entry): as above

SMILES	IC50 (P2X3) [nM]	IC50 (P2X2/3) [nM]
Cc1ccc(N2CCc3ncnc(N[C@H](C)c4ccc(F)cc4)c3C2)nc1 [Compound 49, [(R)-1-(4-Fluoro-phenyl)-ethyl]-[6-(5-methyl-pyridin-2-yl)-5,6,7,8-tetrahydro-pyrido[4,3-d]pyrimidin-4-yl]-amine]	19	1220
Cc1ccc(N2CCc3ncnc(N[C@H](CO)c4ccccc4)c3C2)nc1 [Compound 37, (S)-2-[6-(5-Methyl-pyridin-2-yl)-5,6,7,8-tetrahydro-pyrido[4,3-d]pyrimidin-4-ylamino]-2-phenyl-ethanol]	161	
COc1ccc(C(C)Nc2ncnc3c2CN(c2ccc(C)cn2)CC3)cc1F (stereo not drawn) [Compound 21, [1-(3-Fluoro-4-methoxy-phenyl)-ethyl]-[6-(5-methyl-pyridin-2-yl)-5,6,7,8-tetrahydro-pyrido[4,3-d]pyrimidin-4-yl]-amine]	80	1060
Cc1ccc(N2CCc3ncnc(NC(C)c4ccncc4)c3C2)nc1 (stereo not drawn) [Compound 9, [6-(5-Methyl-pyridin-2-yl)-5,6,7,8-tetrahydro-pyrido[4,3-d]pyrimidin-4-yl]-(1-pyridin-4-yl-ethyl)-amine]	212	
CCC(Nc1ncnc2c1CN(c1ccc(C)cn1)CC2)c1ccccc1 (stereo not drawn) [Compound 36, [6-(5-Methyl-pyridin-2-yl)-5,6,7,8-tetrahydro-pyrido[4,3-d]pyrimidin-4-yl]-(1-phenyl-propyl)-amine]	397	
Cc1ccc(N2CCc3ncnc(NC(C)c4ccccn4)c3C2)nc1 (stereo not drawn) [Compound 10, [6-(5-Methyl-pyridin-2-yl)-5,6,7,8-tetrahydro-pyrido[4,3-d]pyrimidin-4-yl]-(1-pyridin-2-yl-ethyl)-amine]	123	3970
Cc1ccc([C@@H](C)Nc2ncnc3c2CN(c2ccc(C)cn2)CC3)cc1 [Compound 34]	47	1460
Cc1ccc(N2CCc3ncnc(N[C@H](CCO)c4ccc(C)nc4)c3C2)nc1 [Compound 61, (R)-3-(6-Methyl-pyridin-3-yl)-3-[6-(5-methyl-pyridin-2-yl)-5,6,7,8-tetrahydro-pyrido[4,3-d]pyrimidin-4-ylamino]-propan-1-ol]	28	133
COc1ccc([C@@H](CO)Nc2ncnc3c2CN(c2ccc(C)cn2)CC3)cn1 [Compound 60, (S)-2-(6-Methoxy-pyridin-3-yl)-2-[6-(5-methyl-pyridin-2-yl)-5,6,7,8-tetrahydro-pyrido[4,3-d]pyrimidin-4-ylamino]-ethanol]	27	97
Cc1ccc(N2CCc3ncnc(N[C@H](C)c4cnc(C)nc4)c3C2)nc1 [Compound 64, [6-(5-Methyl-pyridin-2-yl)-5,6,7,8-tetrahydro-pyrido[4,3-d]pyrimidin-4-yl]-[(R)-1-(2-methyl-pyrimidin-5-yl)-ethyl]-amine]	17	260
COc1ccccc1C(C)Nc1ncnc2c1CN(c1ccc(C)cn1)CC2 (stereo not drawn) [Compound 14, [1-(2-Methoxy-phenyl)-ethyl]-[6-(5-methyl-pyridin-2-yl)-5,6,7,8-tetrahydro-pyrido[4,3-d]pyrimidin-4-yl]-amine]	137	
C[C@@H](Nc1ncnc2c1CN(c1ccc(Cl)cn1)CC2)c1ccc(Cl)cc1 [Compound 40, [(R)-1-(4-Chloro-phenyl)-ethyl]-[6-(5-chloro-pyridin-2-yl)-5,6,7,8-tetrahydro-pyrido[4,3-d]pyrimidin-4-yl]-amine]	344	
CCc1ccc(C(C)Nc2ncnc3c2CN(c2ccc(C)cn2)CC3)cc1 (stereo not drawn) [Compound 13, [1-(4-Ethyl-phenyl)-ethyl]-[6-(5-methyl-pyridin-2-yl)-5,6,7,8-tetrahydro-pyrido[4,3-d]pyrimidin-4-yl]-amine]	603	
Cc1ccc(N2CCc3ncnc(NC(CCO)c4ccc(C(F)(F)F)nc4)c3C2)nc1 (stereo not drawn) [Compound 56, 3-[6-(5-Methyl-pyridin-2-yl)-5,6,7,8-tetrahydro-pyrido[4,3-d]pyrimidin-4-ylamino]-3-(6-trifluoromethyl-pyridin-3-yl)-propan-1-ol]	67	522
Cc1ccc(N2CCc3ncnc(NC(C)c4ccc(C(F)(F)F)cc4)c3C2)nc1 (stereo not drawn) [Compound 26, [6-(5-Methyl-pyridin-2-yl)-5,6,7,8-tetrahydro-pyrido[4,3-d]pyrimidin-4-yl]-[1-(4-trifluoromethyl-phenyl)-ethyl]-amine]	245	
Cc1ccc(N2CCc3ncnc(NC(C)c4ccc(Cl)cc4Cl)c3C2)nc1 (stereo not drawn) [Compound 27, [1-(2,4-Dichloro-phenyl)-ethyl]-[6-(5-methyl-pyridin-2-yl)-5,6,7,8-tetrahydro-pyrido[4,3-d]pyrimidin-4-yl]-amine]	415	
CC[C@H](Nc1ncnc2c1CN(c1ccc(C)cn1)CC2)c1ccccc1 [Compound 45, [6-(5-Methyl-pyridin-2-yl)-5,6,7,8-tetrahydro-pyrido[4,3-d]pyrimidin-4-yl]-((S)-1-phenyl-propyl)-amine]	> 10000	
FC(F)(F)c1ccc([C@H](Nc2ncnc3c2CN(c2ccc(Cl)cn2)CC3)C2CC2)cn1 [Compound 53, [6-(5-Chloro-pyridin-2-yl)-5,6,7,8-tetrahydro-pyrido[4,3-d]pyrimidin-4-yl]-[(R)-cyclopropyl-(6-trifluoromethyl-pyridin-3-yl)-methyl]-amine]	3560	
Cc1ccc(N2CCc3ncnc(NC(C)c4cccc(C(F)(F)F)c4)c3C2)nc1 (stereo not drawn) [Compound 4, [6-(5-Methyl-pyridin-2-yl)-5,6,7,8-tetrahydro-pyrido[4,3-d]pyrimidin-4-yl]-[1-(3-trifluoromethyl-phenyl)-ethyl]-amine]	301	
Cc1ccc(N2CCc3ncnc(NC(C)c4cccc(Cl)c4)c3C2)nc1 (stereo not drawn) [Compound 16, [1-(3-Chloro-phenyl)-ethyl]-[6-(5-methyl-pyridin-2-yl)-5,6,7,8-tetrahydro-pyrido[4,3-d]pyrimidin-4-yl]-amine]	119	
FC(F)(F)c1ccc([C@@H](Nc2ncnc3c2CN(c2ccc(Cl)cn2)CC3)C2CC2)cn1 [Compound 54, [6-(5-Chloro-pyridin-2-yl)-5,6,7,8-tetrahydro-pyrido[4,3-d]pyrimidin-4-yl]-[(S)-cyclopropyl-(6-trifluoromethyl-pyridin-3-yl)-methyl]-amine]		> 10000
COc1ccc([C@@H](C)Nc2ncnc3c2CN(c2ccc(C)cn2)CC3)cc1 [Compound 43, [(R)-1-(4-Methoxy-phenyl)-ethyl]-[6-(5-methyl-pyridin-2-yl)-5,6,7,8-tetrahydro-pyrido[4,3-d]pyrimidin-4-yl]-amine]	181	
Cc1ccc(N2CCc3ncnc(NC(C)c4ccccc4Cl)c3C2)nc1 (stereo not drawn) [Compound 15, [1-(2-Chloro-phenyl)-ethyl]-[6-(5-methyl-pyridin-2-yl)-5,6,7,8-tetrahydro-pyrido[4,3-d]pyrimidin-4-yl]-amine]	125	
CC[C@@H](Nc1ncnc2c1CN(c1ccc(C)cn1)CC2)c1ccccc1 [Compound 42]	408	
C[C@H](Nc1ncnc2c1CN(c1ccc(Cl)cn1)CC2)c1ccc(C(F)(F)F)nc1 [Compound 51, (S)-6-(5-Chloropyridin-2-yl)-N-(1-(6-(trifluoromethyl)pyridin-3-yl)ethyl)-5,6,7,8-tetrahydropyrido[4,3-d]pyrimidin-4-amine]	> 10000	
Cc1ccc(N2CCc3ncnc(N[C@@H](C)c4ccc(Cl)cc4)c3C2)nc1 [Compound 6, [(S)-1-(4-Chloro-phenyl)-ethyl]-[6-(5-methyl-pyridin-2-yl)-5,6,7,8-tetrahydro-pyrido[4,3-d]pyrimidin-4-yl]-amine]	> 7200	
Cc1ccc(N2CCc3ncnc(NC(C)c4ccc(Br)cc4)c3C2)nc1 (stereo not drawn) [Compound 28, [1-(4-Bromo-phenyl)-ethyl]-[6-(5-methyl-pyridin-2-yl)-5,6,7,8-tetrahydro-pyrido[4,3-d]pyrimidin-4-yl]-amine]	212	
C[C@@H](Nc1ncnc2c1CN(c1ccc(Cl)cn1)CC2)c1ccc(C(F)(F)F)nc1 [Compound 52, [6-(5-Chloro-pyridin-2-yl)-5,6,7,8-tetrahydro-pyrido[4,3-d]pyrimidin-4-yl]-[(R)-1-(6-trifluoromethyl-pyridin-3-yl)-ethyl]-amine]	33	
